Laboratory results from article PMC7468568 (Nature chemical biology, 2020).
In brackets after ≈: the same amount, converted by molar mass.

How the values were obtained:
[1] = system: c-Fos protein expression in the paraventricular nucleus (PVN); assay: HPA axis activation: c-Fos labeling in the PVN; assay type: in vivo, mouse; details: for c-Fos protein expression in PVN: C57BL/6J mice
[2] = target: T1, NAPE-PLD (Mus musculus, UniProt Q8BH82); assay: LC-MS-based endogenous NAPE-PLD activity assay; assay type: biochemical
T1 sequence (Q8BH82 1-396): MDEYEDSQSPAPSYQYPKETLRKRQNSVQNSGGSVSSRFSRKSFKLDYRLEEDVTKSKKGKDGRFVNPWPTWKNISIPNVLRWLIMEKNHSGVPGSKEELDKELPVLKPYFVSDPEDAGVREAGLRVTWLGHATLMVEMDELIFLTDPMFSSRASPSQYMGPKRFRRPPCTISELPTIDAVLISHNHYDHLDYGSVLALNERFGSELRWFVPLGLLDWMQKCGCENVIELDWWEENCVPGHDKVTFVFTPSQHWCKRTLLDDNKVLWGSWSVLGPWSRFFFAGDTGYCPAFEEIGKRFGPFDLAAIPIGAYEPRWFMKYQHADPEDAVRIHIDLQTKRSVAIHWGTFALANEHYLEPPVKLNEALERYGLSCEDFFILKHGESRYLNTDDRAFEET

[3] = target: cannabinoid CB1 receptor (Homo sapiens, UniProt P21554); assay: [3H]CP55940 radioligand displacement assay CB1; assay type: binding; details: at 10 μM
Chain of cannabinoid CB1 receptor (P21554 whole entry): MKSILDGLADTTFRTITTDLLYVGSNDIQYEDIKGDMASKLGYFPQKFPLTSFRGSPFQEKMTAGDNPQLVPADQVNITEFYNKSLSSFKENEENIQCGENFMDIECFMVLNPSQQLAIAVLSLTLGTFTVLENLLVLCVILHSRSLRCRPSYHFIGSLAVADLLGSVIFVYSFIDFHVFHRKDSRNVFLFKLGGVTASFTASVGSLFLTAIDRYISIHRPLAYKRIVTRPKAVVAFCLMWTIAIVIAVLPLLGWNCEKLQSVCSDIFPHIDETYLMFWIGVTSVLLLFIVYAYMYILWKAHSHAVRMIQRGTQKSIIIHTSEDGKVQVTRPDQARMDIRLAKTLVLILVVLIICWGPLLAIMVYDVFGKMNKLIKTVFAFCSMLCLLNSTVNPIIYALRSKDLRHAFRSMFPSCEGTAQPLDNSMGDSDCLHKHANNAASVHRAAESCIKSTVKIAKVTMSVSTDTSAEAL

[4] = target: cannabinoid CB2 receptor (Homo sapiens, UniProt P34972); assay: [3H]CP55940 radioligand displacement assay CB2; assay type: binding; details: at 10 μM
Chain of cannabinoid CB2 receptor (P34972 whole entry): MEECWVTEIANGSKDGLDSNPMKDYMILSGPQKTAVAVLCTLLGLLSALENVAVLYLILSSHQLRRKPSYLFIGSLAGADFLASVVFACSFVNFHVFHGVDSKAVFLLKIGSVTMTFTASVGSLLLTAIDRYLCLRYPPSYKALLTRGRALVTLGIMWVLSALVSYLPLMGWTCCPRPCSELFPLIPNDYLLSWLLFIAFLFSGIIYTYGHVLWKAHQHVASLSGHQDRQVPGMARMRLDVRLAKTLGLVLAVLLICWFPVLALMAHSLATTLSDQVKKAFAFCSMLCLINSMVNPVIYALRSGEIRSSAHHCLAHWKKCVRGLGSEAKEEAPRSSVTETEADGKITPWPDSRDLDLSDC

[5] = target: T2, PLA2G4E (Homo sapiens, UniProt Q3MJ16); assay: Gel-based ABPP, hPLA2G4E overexpressing membrane lysate; assay type: biochemical; details: at 10 μM
T2 sequence (Q3MJ16 1-868): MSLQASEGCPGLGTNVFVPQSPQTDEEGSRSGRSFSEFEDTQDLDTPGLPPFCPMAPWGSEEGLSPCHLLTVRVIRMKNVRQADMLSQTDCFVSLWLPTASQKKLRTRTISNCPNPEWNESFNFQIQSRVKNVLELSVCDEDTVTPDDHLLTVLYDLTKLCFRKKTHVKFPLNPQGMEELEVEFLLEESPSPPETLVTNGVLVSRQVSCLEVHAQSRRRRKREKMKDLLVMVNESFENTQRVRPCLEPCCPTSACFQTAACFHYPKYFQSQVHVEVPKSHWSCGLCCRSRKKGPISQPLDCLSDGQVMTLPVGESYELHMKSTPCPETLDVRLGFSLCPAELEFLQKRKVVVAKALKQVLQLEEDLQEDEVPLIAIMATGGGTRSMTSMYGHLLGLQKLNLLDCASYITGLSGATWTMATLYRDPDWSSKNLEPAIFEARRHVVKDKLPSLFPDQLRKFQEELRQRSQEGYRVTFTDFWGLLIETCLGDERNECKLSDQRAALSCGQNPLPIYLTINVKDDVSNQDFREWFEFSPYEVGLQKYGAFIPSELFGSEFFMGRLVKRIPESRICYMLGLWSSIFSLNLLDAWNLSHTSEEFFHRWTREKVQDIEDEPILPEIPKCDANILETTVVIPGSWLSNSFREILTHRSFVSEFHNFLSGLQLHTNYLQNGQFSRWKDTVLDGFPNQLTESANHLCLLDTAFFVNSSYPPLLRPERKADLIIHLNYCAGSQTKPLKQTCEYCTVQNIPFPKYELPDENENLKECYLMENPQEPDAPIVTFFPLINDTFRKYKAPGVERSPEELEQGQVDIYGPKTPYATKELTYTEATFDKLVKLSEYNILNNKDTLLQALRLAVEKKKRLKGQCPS

[6] = target: T3, FAAH (Mus musculus, UniProt O08914); assay: Gel-based ABPP, mouse brain membrane proteome; assay type: biochemical; details: at 10 μM
T3 sequence (O08914 1-579): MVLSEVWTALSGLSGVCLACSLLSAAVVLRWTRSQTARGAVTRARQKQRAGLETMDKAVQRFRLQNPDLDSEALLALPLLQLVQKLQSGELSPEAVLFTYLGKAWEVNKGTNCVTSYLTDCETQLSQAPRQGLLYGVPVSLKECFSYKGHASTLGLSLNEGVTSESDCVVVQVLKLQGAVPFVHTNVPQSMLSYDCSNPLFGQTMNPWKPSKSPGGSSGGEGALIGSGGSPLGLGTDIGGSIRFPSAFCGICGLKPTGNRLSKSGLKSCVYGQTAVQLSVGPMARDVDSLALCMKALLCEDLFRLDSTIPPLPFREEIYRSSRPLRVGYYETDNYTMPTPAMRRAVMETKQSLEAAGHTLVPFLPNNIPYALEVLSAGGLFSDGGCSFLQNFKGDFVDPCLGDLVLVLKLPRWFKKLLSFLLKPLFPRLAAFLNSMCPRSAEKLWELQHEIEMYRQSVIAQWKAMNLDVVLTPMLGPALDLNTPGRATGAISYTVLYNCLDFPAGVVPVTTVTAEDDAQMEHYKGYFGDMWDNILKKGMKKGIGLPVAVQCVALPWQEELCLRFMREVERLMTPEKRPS

[7] = system: DAGLα; assay: Natural substrate-based fluorescence assay DAGLα; assay type: biochemical, human and mouse
[8] = target: T4, mDAGLβ (Mus musculus, UniProt Q91WC9); assay: Surrogate substrate-based fluorescence assay DAGLβ; assay type: biochemical
T4 sequence (Q91WC9 1-669): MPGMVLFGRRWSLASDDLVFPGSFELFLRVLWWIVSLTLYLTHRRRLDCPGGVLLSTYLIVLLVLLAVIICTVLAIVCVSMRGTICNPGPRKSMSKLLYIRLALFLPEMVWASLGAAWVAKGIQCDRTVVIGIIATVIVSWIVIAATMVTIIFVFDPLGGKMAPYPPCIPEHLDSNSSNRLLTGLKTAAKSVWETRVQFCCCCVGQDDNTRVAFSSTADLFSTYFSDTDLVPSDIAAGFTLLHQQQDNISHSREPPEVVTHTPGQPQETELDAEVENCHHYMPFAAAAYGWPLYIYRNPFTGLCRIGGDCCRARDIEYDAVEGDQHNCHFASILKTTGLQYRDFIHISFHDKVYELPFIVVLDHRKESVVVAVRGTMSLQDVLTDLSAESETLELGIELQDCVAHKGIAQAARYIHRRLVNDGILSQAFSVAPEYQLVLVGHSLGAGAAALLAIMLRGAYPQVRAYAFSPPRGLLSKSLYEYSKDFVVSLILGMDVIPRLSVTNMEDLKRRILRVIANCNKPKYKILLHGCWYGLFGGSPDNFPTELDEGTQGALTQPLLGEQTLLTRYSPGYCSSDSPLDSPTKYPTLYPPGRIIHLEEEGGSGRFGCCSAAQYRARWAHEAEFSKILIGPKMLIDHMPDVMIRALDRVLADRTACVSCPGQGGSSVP

[9] = target: T5, human MAGL (Homo sapiens, UniProt Q99685); assay: Natural substrate-based fluorescence assay MAGL; assay type: biochemical
T5 sequence (Q99685 1-303): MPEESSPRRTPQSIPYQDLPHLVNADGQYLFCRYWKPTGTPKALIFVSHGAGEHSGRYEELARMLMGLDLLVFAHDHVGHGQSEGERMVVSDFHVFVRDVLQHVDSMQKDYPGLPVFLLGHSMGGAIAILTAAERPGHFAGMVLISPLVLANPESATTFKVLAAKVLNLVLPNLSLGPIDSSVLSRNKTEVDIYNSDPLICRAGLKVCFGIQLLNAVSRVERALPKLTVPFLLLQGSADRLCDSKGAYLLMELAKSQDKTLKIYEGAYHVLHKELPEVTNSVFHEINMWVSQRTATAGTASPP

[10] = target: T6, ABHD6 (Mus musculus, UniProt Q8R2Y0); assay: Gel-based ABPP, mouse brain membrane proteome; assay type: biochemical
T6 sequence (Q8R2Y0 1-336): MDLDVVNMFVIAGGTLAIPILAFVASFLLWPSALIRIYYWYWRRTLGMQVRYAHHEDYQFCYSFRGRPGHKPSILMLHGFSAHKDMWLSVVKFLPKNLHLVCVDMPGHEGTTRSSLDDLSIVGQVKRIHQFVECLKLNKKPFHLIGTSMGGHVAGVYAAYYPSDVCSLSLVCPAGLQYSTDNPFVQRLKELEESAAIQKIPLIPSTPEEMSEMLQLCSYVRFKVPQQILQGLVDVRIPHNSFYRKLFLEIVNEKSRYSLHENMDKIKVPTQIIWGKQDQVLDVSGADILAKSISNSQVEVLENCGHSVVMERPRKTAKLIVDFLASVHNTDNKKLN

[11] = target: protein targets of photoprobe 10 in hNAPE-PLD-FLAG-transfected HEK293T cells (Homo sapiens, UniProt Q6IQ20); assay: Chemical proteomics-based photoaffinity labeling; assay type: cell-based; details: photoprobe 10 2 μM versus LEI-401 20 μM
Chain of protein targets of photoprobe 10 in hNAPE-PLD-FLAG-transfected HEK293T cells (Q6IQ20 whole entry): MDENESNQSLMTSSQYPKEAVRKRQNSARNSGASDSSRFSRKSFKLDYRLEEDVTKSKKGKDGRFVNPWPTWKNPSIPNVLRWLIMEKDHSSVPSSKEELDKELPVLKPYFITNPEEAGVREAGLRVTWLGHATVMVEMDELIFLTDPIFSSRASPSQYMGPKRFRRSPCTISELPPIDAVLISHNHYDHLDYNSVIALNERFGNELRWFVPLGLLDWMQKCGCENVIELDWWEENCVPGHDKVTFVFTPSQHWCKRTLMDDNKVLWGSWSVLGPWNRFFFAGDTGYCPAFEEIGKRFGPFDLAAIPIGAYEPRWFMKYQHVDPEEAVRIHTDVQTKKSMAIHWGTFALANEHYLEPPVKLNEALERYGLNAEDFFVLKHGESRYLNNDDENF

[12] = system: Neuro-2a cells; assay: Targeted lipidomics in Neuro-2a cells; assay type: cell-based, mouse; details: 10 μM, 2 h
[13] = system: Neuro-2a cells; assay: Live cell count with trypan blue; assay type: cell-based, mouse; details: 10 μM, 2 h
[14] = logD-assay; assay type: physicochemical; details: octanol/water
[15] = Kinetic aqueous solubility; assay type: physicochemical; details: phosphate buffer pH 6.5
[16] = Microsomal clearance, human; assay type: in vitro ADME; details: 1 μM
[17] = Microsomal clearance, mouse; assay type: in vitro ADME; details: 1 μM
[18] = Hepatocyte clearance, human; assay type: in vitro ADME; details: 1 μM
[19] = Hepatocyte clearance, mouse; assay type: in vitro ADME; details: 1 μM
[20] = Plasma protein binding, human; assay type: in vitro ADME; details: equilibrium dialysis
[21] = Plasma protein binding, mouse; assay type: in vitro ADME; details: equilibrium dialysis
[22] = target: human PGP-transporter (Homo sapiens, UniProt P08183); assay: P-glycoprotein active efflux assay, human; assay type: in vitro ADME
Chain of human PGP-transporter (P08183 whole entry): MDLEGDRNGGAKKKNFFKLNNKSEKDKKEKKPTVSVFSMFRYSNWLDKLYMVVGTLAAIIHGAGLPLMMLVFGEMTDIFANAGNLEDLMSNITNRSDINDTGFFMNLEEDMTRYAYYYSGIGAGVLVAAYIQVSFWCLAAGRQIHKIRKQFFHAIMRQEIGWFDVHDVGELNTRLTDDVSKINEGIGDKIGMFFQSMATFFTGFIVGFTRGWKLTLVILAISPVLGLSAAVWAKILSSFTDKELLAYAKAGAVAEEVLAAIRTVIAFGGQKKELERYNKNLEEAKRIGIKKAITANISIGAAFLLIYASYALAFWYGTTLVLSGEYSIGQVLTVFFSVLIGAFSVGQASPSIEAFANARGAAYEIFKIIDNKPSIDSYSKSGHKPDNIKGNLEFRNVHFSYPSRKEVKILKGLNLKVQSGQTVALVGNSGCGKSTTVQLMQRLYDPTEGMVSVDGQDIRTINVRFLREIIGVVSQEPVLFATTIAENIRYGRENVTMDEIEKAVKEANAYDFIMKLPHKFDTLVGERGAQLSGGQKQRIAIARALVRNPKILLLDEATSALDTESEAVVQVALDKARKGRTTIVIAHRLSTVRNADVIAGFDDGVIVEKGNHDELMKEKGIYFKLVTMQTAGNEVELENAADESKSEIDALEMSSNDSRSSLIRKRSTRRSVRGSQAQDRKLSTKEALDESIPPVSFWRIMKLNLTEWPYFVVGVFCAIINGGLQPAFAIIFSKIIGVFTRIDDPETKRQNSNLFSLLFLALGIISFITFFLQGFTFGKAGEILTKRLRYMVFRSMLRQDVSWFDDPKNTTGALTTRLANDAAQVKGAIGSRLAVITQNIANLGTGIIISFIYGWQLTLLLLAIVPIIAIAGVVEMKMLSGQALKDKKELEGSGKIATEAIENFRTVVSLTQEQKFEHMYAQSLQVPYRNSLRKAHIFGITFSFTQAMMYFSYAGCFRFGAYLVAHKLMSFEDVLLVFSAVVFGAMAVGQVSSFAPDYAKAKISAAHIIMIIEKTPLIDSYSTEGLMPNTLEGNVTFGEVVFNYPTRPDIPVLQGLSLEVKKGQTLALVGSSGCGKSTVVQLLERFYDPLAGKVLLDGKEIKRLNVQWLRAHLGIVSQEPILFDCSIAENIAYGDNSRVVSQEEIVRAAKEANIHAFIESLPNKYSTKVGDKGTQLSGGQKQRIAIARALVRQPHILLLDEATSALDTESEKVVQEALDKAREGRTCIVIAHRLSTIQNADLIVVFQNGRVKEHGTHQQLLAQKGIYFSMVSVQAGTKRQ

[23] = target: mouse PGP-transporter (Mus musculus, UniProt P21447); assay: P-glycoprotein active efflux assay, mouse; assay type: in vitro ADME
Chain of mouse PGP-transporter (P21447 whole entry): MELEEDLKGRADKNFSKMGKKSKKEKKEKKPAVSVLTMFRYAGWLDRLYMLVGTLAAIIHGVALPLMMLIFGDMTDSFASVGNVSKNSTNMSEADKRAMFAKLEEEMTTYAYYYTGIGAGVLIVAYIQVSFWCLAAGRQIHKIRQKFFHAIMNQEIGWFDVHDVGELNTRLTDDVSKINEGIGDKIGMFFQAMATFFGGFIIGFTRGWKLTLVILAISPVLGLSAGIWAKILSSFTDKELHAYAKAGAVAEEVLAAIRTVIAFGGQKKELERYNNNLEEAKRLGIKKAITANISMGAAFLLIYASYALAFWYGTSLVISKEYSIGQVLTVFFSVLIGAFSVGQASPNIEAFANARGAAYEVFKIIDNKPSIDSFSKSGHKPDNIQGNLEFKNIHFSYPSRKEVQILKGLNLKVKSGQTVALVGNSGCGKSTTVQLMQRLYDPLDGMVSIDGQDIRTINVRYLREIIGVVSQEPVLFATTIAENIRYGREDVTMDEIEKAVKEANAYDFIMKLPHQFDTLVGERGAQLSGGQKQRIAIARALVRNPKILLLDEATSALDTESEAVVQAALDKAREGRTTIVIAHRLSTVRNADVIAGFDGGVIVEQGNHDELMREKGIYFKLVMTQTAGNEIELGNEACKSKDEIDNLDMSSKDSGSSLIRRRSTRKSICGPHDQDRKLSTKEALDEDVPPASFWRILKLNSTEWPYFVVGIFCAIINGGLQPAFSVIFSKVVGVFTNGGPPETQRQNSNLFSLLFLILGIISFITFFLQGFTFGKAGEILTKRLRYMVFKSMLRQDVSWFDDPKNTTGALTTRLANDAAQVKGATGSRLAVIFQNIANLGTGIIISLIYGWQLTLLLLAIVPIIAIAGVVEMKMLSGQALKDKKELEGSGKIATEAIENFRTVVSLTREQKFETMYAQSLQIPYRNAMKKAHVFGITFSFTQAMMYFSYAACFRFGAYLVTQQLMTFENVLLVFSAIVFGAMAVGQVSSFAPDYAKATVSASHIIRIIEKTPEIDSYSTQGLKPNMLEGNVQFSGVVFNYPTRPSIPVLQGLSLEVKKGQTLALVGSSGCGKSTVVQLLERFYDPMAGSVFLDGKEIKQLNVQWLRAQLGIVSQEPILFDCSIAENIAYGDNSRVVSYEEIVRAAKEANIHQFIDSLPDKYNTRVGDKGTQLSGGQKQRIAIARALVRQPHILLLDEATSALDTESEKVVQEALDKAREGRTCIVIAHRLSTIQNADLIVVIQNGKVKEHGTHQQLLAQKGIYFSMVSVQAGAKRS

[24] = system: brain NAE levels; assay: Lipid measurements in mouse brain; assay type: in vivo
[25] = system: DAGLα/β, MAGL and ABHD6; assay: In vitro ABPP of brain of LEI-401-treated mice; assay type: in vivo, mouse; details: male C57BL/6J mice; 30 mg kg^−1 i.p.; 2 h; ABPP of brain membrane lysate
[26] = system: circulating corticosterone (CORT); assay: HPA axis activation: circulating CORT measurements; details: cotreatment 1 mg kg^−1 i.p. with LEI-401 30 mg kg^−1 i.p.; P = 0.0027
[27] = WT littermates of NAPE-PLD KO animals, mixed 129SvJ-C57BL/6 background

Cc1c(C(=O)NN2CCCCC2)nn(-c2ccc(Cl)cc2Cl)c1-c1ccc(I)cc1 [AM251]
c-Fos protein expression in PVN ([1]; 3 mg kg^−1 i.p. single dose, 105 min before perfusion, P = 0.011): elevated c-Fos protein expression

O=C(NCC1CC1)c1cc(N2CC[C@H](O)C2)nc(N2CCC[C@@H](c3ccccc3)C2)n1 [LEI-401]
C17:0-NAE formation from C17:0-NAPE ([2]; brain homogenates of NAPE-PLD KO mice): not from KO mice | C17:0-NAE formation from C17:0-NAPE ([2]; brain homogenates of WT mice): reduced C17:0-NAE formation | inhibitory activity, cannabinoid receptor type 1 [3]: No inhibitory activities | inhibitory activity, cannabinoid receptor type 2 [4]: No inhibitory activities | inhibitory activity, PLA2G4E [5]: No inhibitory activities | inhibitory activity, FAAH [6]: No inhibitory activities | inhibition of DAGLα [7]: did not inhibit | inhibition of DAGLβ [8]: did not inhibit | inhibition of MAGL [9]: did not inhibit | inhibition of ABHD6 [10]: did not inhibit | competition of NAPE-PLD labeling by probe 10 [11]: labeling could be prevented | anandamide level ([12]; Neuro-2a NAPE-PLD KO cells): not in NAPE-PLD KO cells | anandamide level ([12]; Neuro-2a WT cells): twofold reduction | other saturated, mono- and (ω−6)-polyunsaturated NAE levels ([12]; Neuro-2a WT cells): twofold decrease | (ω−3)-polyunsaturated EPEA and DHEA levels ([12]; Neuro-2a cells): did not respond | cell viability [13]: did not show any sign of reduced cell viability | logD [14]: 3.3 | aqueous solubility [15]: 1.7 µg/mL (≈ 4.03 µM) | clearance in human microsomes [16]: 10 μl min^−1 mg^−1 protein | clearance in mouse microsomes [17]: 42 μl min^−1 mg^−1 protein | clearance in human hepatocytes [18]: 6.9 μl min^−1 per 10^6 cells | clearance in mouse hepatocytes [19]: 28.8 μl min^−1 per 10^6 cells | human protein binding [20]: > 99.8% | mouse protein binding [21]: > 99.8% | efflux ratio, human PGP-transporter [22]: 1.7 | efflux ratio, mouse PGP-transporter [23]: 1.8 | brain 2-AG levels ([24]; C57BL/6J mice, 30 mg kg^−1 i.p.): not significantly affected | brain anandamide level, dose response ([24]; C57BL/6J mice, 30 mg kg^−1 i.p., 2 h): significantly reduced anandamide | brain NAE levels in NAPE-PLD KO mice ([24]; NAPE-PLD KO mice, mixed 129SvJ-C57BL/6 background): did not reduce | brain AA levels at high dose ([24]; WT and NAPE-PLD KO mice (both genotypes), 60 mg kg^−1): decreased | brain NAPE and pNAPE species ([24]; WT and NAPE-PLD KO mice, compared to vehicle): No change | brain PEA and OEA levels in WT littermates [24, 27]: significantly reduced | brain anandamide levels in WT littermates [24, 27]: not decreased | brain anandamide level, time course ([24]; male C57BL/6J mice, 30 mg kg^−1 i.p. single dose, 1, 2, 4, 8 h, significant at 2 h, vehicle level by 4 h): significant and time-dependent reduction | activity of DAGLα/β, MAGL and ABHD6 in the brain [25]: not affected | c-Fos protein expression in PVN ([1]; 30 mg kg^−1 i.p. single dose, 210 min before perfusion, P< 0.0001): elevated c-Fos protein expression

NC(=O)c1cccc(-c2cccc(OC(=O)NC3CCCCC3)c2)c1 [URB597]
effect on LEI-401-induced c-Fos protein expression in PVN ([1]; cotreatment 1 mg kg^−1 i.p. with LEI-401 30 mg kg^−1 i.p., P=0.016): reversed by cotreatment | plasma CORT levels in LEI-401-treated mice on cotreatment [26]: not when cotreated with a FAAH inhibitor
